Source: article PMC9405123, “Design, Synthesis and Mechanistic Studies of Novel Isatin-Pyrazole Hydrazone Conjugates as Selective and Potent Bacterial MetAP Inhibitors” (Antibiotics, 2022)
Values after ≈ are worked out from the molar mass of the structure shown.

How the values were obtained:
EcMetAP1 = tested on: EcMetAP1; parameters: method as in PMID 15506752; conditions: Co(II) as the cofactor; cited from earlier work
JST61 = assay: MIC on environmental MDR isolate (microdilution); conditions: Pantoea agglomerans
LG20 = assay: MIC on environmental MDR isolate (microdilution); conditions: Enterobacter, isolate LG20 Enterobacter sp.
SH28 = assay: MIC on environmental MDR isolate (microdilution); conditions: Aeromonas caviae
HK32 = assay: MIC on environmental MDR isolate (microdilution); conditions: Enterobacter cloacae
HK1 = assay: MIC on environmental MDR isolate (microdilution)
SH34 = assay: MIC on environmental MDR isolate (microdilution); conditions: Serratia marcescens
LG1 = assay: MIC on environmental MDR isolate (microdilution)
JST68 = assay: MIC on environmental MDR isolate (microdilution); conditions: Escherichia coli
LG24 = assay: MIC on environmental MDR isolate (microdilution); conditions: Escherichia coli
HK43 = assay: MIC on environmental MDR isolate (microdilution); conditions: Exiguobacterium mexicanum
HK41 = assay: MIC on environmental MDR isolate (microdilution); conditions: Enterobacter cloacae
HK91 = assay: MIC on environmental MDR isolate (microdilution); conditions: Ralstonia
JST28 = assay: MIC on environmental MDR isolate (microdilution); conditions: Escherichia coli
JST71 = assay: MIC on environmental MDR isolate (microdilution); conditions: Enterobacter
SD6 = assay: MIC on environmental MDR isolate (microdilution); conditions: Escherichia coli, isolate SD6 E. coli
JST78 = assay: MIC on environmental MDR isolate (microdilution); conditions: Escherichia coli
LG51 = assay: MIC on environmental MDR isolate (microdilution); conditions: Escherichia coli
SD5 = assay: MIC on environmental MDR isolate (microdilution); conditions: Escherichia coli, isolate SD5 E. coli
LG71 = assay: MIC on environmental MDR isolate (microdilution); conditions: Enterobacter cloacae
JST63 = assay: MIC on environmental MDR isolate (microdilution)
LG33 = assay: MIC on environmental MDR isolate (microdilution); conditions: Enterobacter
[1] = tested on: human red blood cells (hRBCs); assay: Hemolytic activity; assay type: cell-based
Protocol: The compound PS9 was evaluated for hemolytic effect on human RBCs. In brief, RBCs suspension 10% (v/v) cleaned with 1 × PBS and resuspended again in 1 × PBS (pH 7.4). […] The samples were centrifuged and absorbance of the supernatant was taken at 415 nm to obtain the percentage of RBCs lysis. Triton X-100 with 1% (v/v) was used as a positive control. Percentage of RBCs lysis was calculated as:% RBCs lysis = (OD415nm sample − OD415nm PBS)/(OD415nm Triton X-100 1% − OD415nm PBS)(1)

For `O=C(Nc1nccs1)C(=O)NC1CCCC1` [A, N1-cyclopentyl-N2-(thiazol-2-yl)oxalamide], the IC50 (EcMetAP1) is listed as 67 nM.

`CO/N=C(\C(=O)N[C@@H]1C(=O)N2C(C(=O)O)=C(COC(C)=O)CS[C@H]12)c1csc(N)n1` [CTX, cefotaxime] gave an MIC (JST61) of 256 µg/mL (≈ 562 µM), an MIC (LG20) of 32 µg/mL (≈ 70.3 µM) and an MIC (SH28) of under 2 µg/mL. The MIC (HK32) was 256 µg/mL (≈ 562 µM), the MIC (HK1) was 128 µg/mL (≈ 281 µM) and the MIC (SH34) was 8 µg/mL (≈ 17.6 µM). The MIC (LG1) was 16 µg/mL (≈ 35.1 µM), the MIC (JST68) was 512 µg/mL (≈ 1120 µM) and the MIC (LG24) was 64 µg/mL (≈ 141 µM). For the same compound, the MIC (HK43) was 1020 µg/mL (≈ 2250 µM), the MIC (HK41) was 32 µg/mL (≈ 70.3 µM) and the MIC (HK91) was 8 µg/mL (≈ 17.6 µM). For the same compound, the MIC (JST28) was 8 µg/mL (≈ 17.6 µM), the MIC (JST71) was 1020 µg/mL (≈ 2250 µM) and the MIC (SD6) was 1000 µg/mL (≈ 2200 µM). For the same compound, the MIC (JST78) was 128 µg/mL (≈ 281 µM), the MIC (LG51) was 64 µg/mL (≈ 141 µM) and the MIC (SD5) was 1000 µg/mL (≈ 2200 µM). It also gave an MIC (LG71) of 1020 µg/mL (≈ 2250 µM), an MIC (JST63) of 128 µg/mL (≈ 281 µM) and an MIC (LG33) of 8 µg/mL (≈ 17.6 µM).

Compound Triton-X 100 [reference compound] has a hemolysis [1] of 100%.
